# Measured values published in publication PMC11467737, “Osteocalcin binds to a GPRC6A Venus fly trap allosteric site to positively modulate GPRC6A signaling” (FASEB BioAdvances, 2024).
# Numbering of substitutions follows the chain as printed. Bridge positions count the residues as written; N and C are the ends. Ends that are not written are not given here.
# Tests used:
# K352E hGPRC6A = molecular target: T1, K352E hGPRC6A (Homo sapiens, UniProt Q5T6X5, K352E); assay: cAMP accumulation in HEK-293 cells transfected with K352E hGPRC6A; type: cell-based; settings: K352E mutant; for cAMP accumulation by Ocn small fragments: fragment at 20 nM, Figure 6C
# T1 construct: expressed in transfected cells; host or cells: HEK-293, pcDNA3
# T1 sequence (Q5T6X5 19-926 K352E): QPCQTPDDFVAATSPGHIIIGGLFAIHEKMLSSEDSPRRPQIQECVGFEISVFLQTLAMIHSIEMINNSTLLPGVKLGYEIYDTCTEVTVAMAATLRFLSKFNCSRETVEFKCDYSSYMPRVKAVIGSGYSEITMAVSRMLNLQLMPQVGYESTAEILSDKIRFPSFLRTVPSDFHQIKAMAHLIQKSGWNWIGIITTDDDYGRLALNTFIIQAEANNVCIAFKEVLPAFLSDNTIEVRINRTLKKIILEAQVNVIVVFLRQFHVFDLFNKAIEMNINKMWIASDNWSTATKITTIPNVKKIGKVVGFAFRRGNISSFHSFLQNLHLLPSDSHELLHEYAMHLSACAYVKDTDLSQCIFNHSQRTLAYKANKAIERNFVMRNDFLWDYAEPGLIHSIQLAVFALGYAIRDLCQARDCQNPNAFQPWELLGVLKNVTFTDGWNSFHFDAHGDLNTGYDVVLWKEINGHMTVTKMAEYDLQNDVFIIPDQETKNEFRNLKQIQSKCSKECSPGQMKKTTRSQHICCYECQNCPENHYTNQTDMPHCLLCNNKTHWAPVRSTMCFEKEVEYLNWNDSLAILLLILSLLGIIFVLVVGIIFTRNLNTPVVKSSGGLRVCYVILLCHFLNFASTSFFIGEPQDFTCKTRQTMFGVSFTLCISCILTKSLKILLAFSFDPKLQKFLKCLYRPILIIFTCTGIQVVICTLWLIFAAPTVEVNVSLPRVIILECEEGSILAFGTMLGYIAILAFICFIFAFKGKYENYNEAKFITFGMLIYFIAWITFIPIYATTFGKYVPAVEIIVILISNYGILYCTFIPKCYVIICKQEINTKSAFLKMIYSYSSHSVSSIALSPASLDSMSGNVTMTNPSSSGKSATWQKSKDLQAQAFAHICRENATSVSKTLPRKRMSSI
# Description: HEK‐293 transfected with human GPRC6A isoform cDNA plasmids cells (10^5 cells/well)[30] were cultured in 24‐well plates in DMEM supplemented with 10% fetal bovine serum and 1% penicillin/streptomycin (100 U/mL of penicillin and 100 μg/mL of streptomycin) for 48 h followed by 4 h incubation in DMEM/F12 containing 0.1% BSA and 0.5 mM IBMX to achieve quiescence and preventing cAMP degradation. Quiescent cells were treated with vehicle control, various ligands at concentration as indicated for 40 min at 37°C. Then, the reaction was stopped, and the cells lysed with 0.5 mL 0.1 N HCl. cAMP levels were measured by using Cyclic AMP EIA kit (Cayman Chemical; Ann Arbor, MA, USA) following the manufacture's protocol.
# (§1) In‐vitro mutagenesis by PCR‐mediated recombination QuikChange II XL Site‐Directed Mutagenesis Kit (Agilent) was performed using the cDNA of human GPRC6A cloned in the vector pcDNA3 (Invitrogen) as a template. The primer sets are as follows. K352E.sen: […]; K352E.antisen: […]; H355P.sen: […]; H355P.antisen: […]; K352E/H355P.sen: […]; and K352E/H355P.antisen: […]. All mutants were confirmed by sequencing.
# K352E/H355P hGPRC6A = molecular target: T2, K352E/H355P hGPRC6A (Homo sapiens, UniProt Q5T6X5, H355P/K352E); assay: ERK activation in HEK-293 cells transfected with K352E/H355P hGPRC6A; type: cell-based; settings: for ERK activation by Ocn small fragments: K352E/H355P double mutant, fragment at 20 nM, Figure 6D
# T2 construct: expressed in transfected cells; host or cells: HEK-293, pcDNA3
# T2 sequence (Q5T6X5 19-926 K352E/H355P): T1 sequence (Q5T6X5 19-926 K352E) with H337P
# Description: All culture reagents were from Invitrogen (Waltham, MA, USA). Human embryonic kidney HEK‐293 cells were obtained from American Type Culture Collection and cultured in DMEM medium supplemented with 10% fetal bovine serum and 1% Penicillin/Streptomycin (P/S). Briefly, HEK‐293 cells transfected with/without human GPRC6A isoforms cDNA plasmids were starved by overnight incubation in serum‐free DMEM/F12 containing 0.1% bovine serum albumin (BSA) and stimulated with various ligands at different doses. ERK activation was assessed 20 min after treatment by using ERK1/2 (phospho‐T203/Y204) ELISA Kit (Invitrogen; Waltham, MA, USA) corrected for the amount of total ERK using ERK1/2 (Total) ELISA Kit (Invitrogen; Waltham, MA, USA) to measure ERK levels.
# as §1
cAMP accumulation by Ocn small fragments (K352E hGPRC6A),ERK activation by Ocn small fragments (K352E/H355P hGPRC6A),"cAMP accumulation, dose response of full-length Ocn, versus wild-type receptor (K352E hGPRC6A; Figure 6A)","ERK phosphorylation, dose response of full-length Ocn, versus wild-type receptor (K352E/H355P hGPRC6A; K352E/H355P mutant, Figure 6B)",Substance
no response,no response,,,"REVCELNPDC (disulfide 4-10 (inferred)) [Ocn 20–29, synthesized human Ocn decapeptide fragment located in the middle of the protein]"
significantly attenuated,partially activate,,,"RFYGPV [Ocn 44–49, synthesized human Ocn C‐terminal hexapeptide]"
,,significantly decreased,significantly decreased,"osteocalcin (YLYQWLGAPVPYPDPLEPRREVCELNPDCDELADHIGFQEAYRRFYGPV; not fully specified; ends and bridges not checked; UniProt P02818 52-100, looked up) [Ocn 1–49, full human Ocn (49 aa) synthesized by BioMatik; methods also describe decarboxylated Ocn purified from bovine tibial bone, reference compound]"
